Assay [1] deals with GSNOR (Homo sapiens, UniProt P11766). The conditions noted are these: description of the compound; cited from earlier work.
The subject of assay [2] is cell adhesion molecules (ICAM-1 and VCAM-1). The assay is described as follows: Western blotting, protein expression of cell adhesion molecules in isolated microvessels of diabetic mice. The assay is classed as in vivo. The conditions noted are these: cortex and hippocampus microvessels, GSNO vs untreated diabetic group. The method, then: Male laca mice weighing between 28-32 g were procured from the Central Animal House, Panjab University, Chandigarh. The animals were acclimatized and were fed with standard pellet diet and water ad libitum. The experimental protocols were approved by the Institutional Ethics Committee and were conducted according to Indian National Science Academy (INSA) guidelines for the use and care of experimental animals. The animals were divided into four groups: (i) Control animals received phosphate buffered saline (PBS) throughout the study; (ii) Control+GSNO animals were administered with GSNO 100 μg/kg body weight orally, dissolved in PBS after every 24 h for 8 weeks; (iii) Diabetic animals were injected with STZ at a dose of 40 mg/kg body weight intraperitoneally for 5 days dissolved in 0.1 mol/L citrate buffer, pH 4.5 and Diabetic+GSNO mice were administered GSNO 100 μg/kg body weight orally dissolved in PBS after every 24 h for 8 weeks after the induction of diabetes. Animals were assessed weekly for development of diabetic encephalopathy in terms of memory deficits. All experimental procedures were done on mice at the end of study. The microvessels were isolated by the method described by Brooks et al., (2005). […]
For orientation: Immunoblotting shows a protein as a band on a membrane.

For assay [3], the system named is hBMVECs. Briefly: Assay of trans-endothelial electrical resistance (TEER) in thrombin treated hBMVECs. The assay is classed as cell-based, human. The conditions noted are these: thrombin 0.1 unit/ml; GSNO 100 μM or SIN-1 500 μM pretreated 2 hr. As for the experimental part: Cell culture: Primary human brain microvascular endothelial cells (hBMVECs) were purchased from Angio-Proteomie (Cat #: cAP-0002, Atlanta, Ga.). The cells were cultured in cell culture flasks or plates precoated with Quick Coating Solution (Angio-Proteomie; Cat #: cAP-01) and maintained in Endothelial Growth Medium (Angio-Proteomie; Cat #: cAP-02) at 37° C. under 5% CO2/95% air. When the cells were almost confluent, the medium was replaced with endothelial basal medium (Angio-Proteomie; Cat #: cAP-03) containing 0.5% fetal bovine serum (FBS; Life Technologies, Grand Island, N.Y.) about 8-12 hours before the experiment. No institutional approval was required for this study. The study was not pre-registered. For evaluation of the endothelial barrier function, hBMVECs were plated on fibronectin-coated polycarbonate filters (Transwell system, Corning, Midland, N.C.) containing Endothelial Growth Medium (Angio-Proteomie Cat #: cAP-02). The medium was renewed every other day. Five days after seeding, the medium was replaced with Endothelial Basal Medium (Angio-Proteomie Cat #: cAP-03) containing 0.5% FBS and incubated for 2 days. Following drug treatments, transendothelial electrical resistance (TEER) was measured by EVOM2 (Word Precision Instruments) as described previously (Li et al., 2006).

The structures appear in SMILES notation.

Chain of GSNOR (P11766 whole entry): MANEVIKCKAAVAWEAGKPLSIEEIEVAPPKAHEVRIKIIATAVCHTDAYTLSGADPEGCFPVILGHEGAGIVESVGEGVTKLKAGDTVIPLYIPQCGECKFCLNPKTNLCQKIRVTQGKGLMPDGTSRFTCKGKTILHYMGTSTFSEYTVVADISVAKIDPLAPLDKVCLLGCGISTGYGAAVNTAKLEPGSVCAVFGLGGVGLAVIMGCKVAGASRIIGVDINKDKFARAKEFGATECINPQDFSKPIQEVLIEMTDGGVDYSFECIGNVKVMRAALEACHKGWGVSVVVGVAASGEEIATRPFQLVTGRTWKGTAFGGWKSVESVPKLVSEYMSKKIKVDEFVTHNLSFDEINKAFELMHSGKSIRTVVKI

Consider `Cc1cc(C(N)=O)ccc1-n1c(CCC(=O)O)ccc1-c1ccc(-n2ccnc2)cc1` [N6022, reference compound], for which, in assay [1], the “inhibition of GSNOR” value was “very potent, specific, and reversible inhibitor”.
As for `N[C@@H](CCC(=O)N[C@@H](CSN=O)C(=O)NCC(=O)O)C(=O)O` [GSNO, S-nitrosoglutathione], in assay [2], the “protein expression of ICAM-1” value was “significantly mitigate” and the “protein expression of VCAM-1” value was “significantly mitigate”. In addition, the “thrombin-induced loss of TEER” value in assay [3] is on record as “inhibited”.
